Laboratory results: patent US7402683B2, “Cinnamic acid amides” (Bayer HealthCare AG, priority 2002, dated 2008)

Legend:
[1] = tested on: Haemophilus influenzae Spain 7; assay: Determination of the minimum inhibitory concentration (MIC), liquid dilution test; format: cell-based; conditions: BHI broth plus 20% bovine serum, 10 μg/ml hemin and 1% Isovitale, 37° C., 18-24 hours, 8-10% CO2
Procedure: (§1) Determination of the Minimum Inhibitory Concentration (MIC):
(§2) The MIC is determined in a liquid dilution test. Overnight cultures of the test organisms are diluted to a cell count of 10^5 organisms per ml in Isosensitest medium (Difco, Irvine, USA) and are incubated with dilutions of the test substances (1:2 dilution stages). Exceptions are the tests with S. pneumoniae G9A, which are conducted in BHI broth (Difco) plus 20% bovine serum, and with H. influenzae, which are conducted in BHI broth (Difco) plus 20% bovine serum, 10 μg/ml hemin and 1% Isovitale (Becton Dickinson, N.J., USA).
(§3) The cultures are incubated at 37° C. for 18-24 hours; S. pneumoniae and H. influenzae in the presence of 8-10% CO2.
(§4) The lowest concentration of each substance at which there is no longer any visible bacterial growth is defined as the MIC. The MICs in μmol/1 of some compounds of the invention against a series of test organisms are listed by way of example in the table below.

[2] = tested on: Staphylococcus aureus 133; assay: as above; format: cell-based; conditions: Isosensitest medium, 10^5 organisms per ml, 37° C., 18-24 hours; lowest concentration with no visible bacterial growth
Procedure: as §1, §2, §3, §4

bacteria = conditions: described in the literature; cited from earlier work

| Compound | MIC Haemophilus influenzae Spain 7 [1] [μmol/1] | MIC Staphylococcus aureus 133 [2] [μmol/1] | antibacterial activity (bacteria) |
| --- | --- | --- | --- |
| CC(C)[C@H](NC(=O)CC(NC(=O)/C=C/c1ccc2c(c1)OCO2)c1ccc2c(c1)OCCO2)C(=O)[C@@H]1C(=O)NC(=O)[C@H]1C (stereo partly drawn) [Example 5, (2E)-3-(1,3-Benzodioxol-5-yl)-N-{1-(2,3-dihydro-1,4-benzodioxin-6-yl)-3-[((1S)-2-methyl-1-{[(3R,4S)-4-methyl-2,5-dioxo-3-pyrrolidinyl]carbonyl}propyl)amino]-3-oxopropyl}-2-propenamide] | 3.9 | 7.8 | – |
| CC(C)[C@H](NC(=O)C[C@H](NC(=O)/C=C/c1ccsc1)c1ccccc1)C(=O)[C@@H]1C(=O)NC(=O)[C@H]1C [Example 11] | 62.5 | 7.8 | – |
| C[C@@H]1C(=O)N(N)C(=O)[C@H]1C(=O)[C@@H](NC(=O)C[C@H](NC(=O)/C=C/c1ccc(C#N)cc1)c1ccccc1)C1CCCC1 [Example 34, (2E)-N-((1S)-2-{N-[(1S)-2-((4S,3R)-1-amino-4-methyl-2,5-dioxoazolidin-3-yl)-1-cyclopentyl-2-oxoethyl]carbamoyl}-1-phenylethyl)-3-(4-cyanophenyl)prop-2-enamide] | 7.8 | <1 | – |
| CC(C)[C@H](NC(=O)CC(NC(=O)/C=C/c1ccc2c(c1)OCO2)c1ccc2ccccc2c1)C(=O)[C@@H]1C(=O)NC(=O)[C@H]1C (some centres unmarked) [Example 92] | 15.6 | <1 | – |
| C/C=C/C=C/C=C/C(=O)N[C@@H](CC(=O)N[C@H](C(=O)[C@@H]1C(=O)NC(=O)[C@H]1C)C(C)C)c1ccccc1 [andrimid] | – | – | having antibacterial activity |
| C/C=C/C=C/C(=O)N[C@@H](CC(=O)N[C@H](C(=O)[C@@H]1C(=O)NC(=O)[C@H]1C)C(C)C)c1ccccc1 [moiramide B] | – | – | having antibacterial activity |
| C/C=C/C=C/C=C/C(=O)N[C@@H](CC(=O)N[C@H](C(=O)[C@@]1(O)C(=O)NC(=O)[C@H]1C)C(C)C)c1ccccc1 [moiramide C] | – | – | inactive |

Further lines, with some results ahead:

| MIC Haemophilus influenzae Spain 7 [1] [μmol/1] | MIC Staphylococcus aureus 133 [2] [μmol/1] | Compound | antibacterial activity (bacteria) |
| --- | --- | --- | --- |
| 31.3 | 3.9 | CC(C)[C@H](NC(=O)C[C@H](NC(=O)/C=C/c1ccc2c(c1)OCO2)c1ccccc1)C(=O)[C@@H]1C(=O)NC(=O)[C@H]1C [Example 1, (2E)-3-(1,3-Benzodioxol-5-yl)-N-{(1S)-3-[((1S)-2-methyl-1-{[(3R,4S)-4-methyl-2,5-dioxo-3-pyrrolidinyl]carbonyl}propyl)amino]-3-oxo-1-phenylpropyl}-2-propenamide] | – |
| 31.3 | 7.8 | C[C@@H]1C(=O)NC(=O)[C@H]1C(=O)[C@@H](NC(=O)C[C@H](NC(=O)/C=C/c1ccc2c(c1)OCO2)c1ccccc1)C(C)(C)C [Example 2, (2E)-3-(1,3-Benzodioxol-5-yl)-N-{(1S)-3-[((1S)-2,2-dimethyl-1-{[(3R,4S)-4-methyl-2,5-dioxo-3-pyrrolidinyl]carbonyl}propyl)amino]-3-oxo-1-phenylpropyl}-2-propenamide] | – |
| 31.3 | <1 | C[C@@H]1C(=O)NC(=O)[C@H]1C(=O)[C@@H](NC(=O)C[C@H](NC(=O)/C=C/c1ccc2c(c1)OCO2)c1ccccc1)C1CCCC1 [Example 31, (2E)-3-(2H-Benzo[d]1,3-dioxolan-5-yl)-N-((1S)-2-{N-[(1S)-2-((4S,3R)-4-methyl-2,5-dioxoazolin-3-yl)-1-cyclopentyl-2-oxoethyl]carbamoyl}-1-phenylethyl)prop-2-enamide] | – |
